Assay results: US11078193B2 (priority 2014, dated 2021)

How the values were obtained:
[1] = tested on: HBV; assay: anti-HBV activity, HepG2.2.15 stable transfected cell line, HBV DNA from secreted virions by realtime PCR; type: cell-based; details: Hepatitis B virus, 144 h, HepG2.2.15 cells, 6 days of treatment
[2] = tested on: HBV; assay: anti HBV activity, HepG2.117 inducibly HBV producing cell line (Tet-off), intracellular HBV DNA by realtime PCR; type: cell-based; details: Hepatitis B virus, 72 h, HepG2.117 cells, 3 days of treatment
[3] = Cytotoxicity, HepG2 cells, Resazurin assay; type: cell-based; details: human
[4] = ATP based toxicity assay (ATPlite), HepG2 cell line; details: human, HepG2 cells, ATPlite (ATP levels)
In short: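 HepG2 cells exposed to compound, then ATPlite reagent added at 1 volume. Cellular ATP read by luminescence as a viability measure.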

SMILES: Cc1cc(NC(=O)c2c(Cl)c(S(=O)(=O)N[C@H](C)C(F)(F)F)cn2C)ccn1 [Compound 8, 3-Chloro-1-methyl-N-(2-methylpyridin-4-yl)-4-{[(1R)-2,2,2-trifluoro-1-methylethyl]sulfamoyl}-1H-pyrrole-2-carboxamide]
- EC50 [1]: 90 nM
- EC50 [2]: 170 nM
- CC50 at 4 days [3]: > 25000 nM
- melting point: 203.5 °C

SMILES: Cc1nc(NC(=O)c2c(Cl)c(S(=O)(=O)N[C@H](C)C(F)(F)F)cn2C)ccc1F [Compound 7, 3-Chloro-N-(5-fluoro-6-methylpyridin-2-yl)-1-methyl-4-{[(1R)-2,2,2-trifluoro-1-methylethyl]sulfamoyl}-1H-pyrrole-2-carboxamide]
- EC50 [1]: 90 nM
- EC50 [2]: 250 nM
- CC50 at 4 days [3]: > 25000 nM
- CC50 at 4 days [4]: > 25000 nM
- melting point: 173.1 °C

SMILES: C[C@@H](NS(=O)(=O)c1cn(C)c(C(=O)Nc2ccccn2)c1Cl)C(F)(F)F [Compound 15, 3-chloro-1-methyl-N-(2-pyridyl)-4-[[(1R)-2,2,2-trifluoro-1-methyl-ethyl]sulfamoyl]pyrrole-2-carboxamide]
- EC50 [1]: > 1000 nM
- EC50 [2]: > 1000 nM
- CC50 at 4 days [3]: > 25000 nM
- melting point: 195.2 °C

SMILES: Cc1nccc(NC(=O)c2c(Cl)c(S(=O)(=O)N[C@H](C)C(F)(F)F)cn2C)c1F [Compound 14, 3-chloro-N-(3-fluoro-2-methyl-4-pyridyl)-1-methyl-4-[[(1R)-2,2,2-trifluoro-1-methyl-ethyl]sulfamoyl]pyrrole-2-carboxamide]
- EC50 [1]: 60 nM
- EC50 [2]: 120 nM
- CC50 at 4 days [3]: > 25000 nM
- melting point: 197.8 °C

SMILES: C[C@@H](NS(=O)(=O)c1cn(C)c(C(=O)Nc2ccnc(Cl)c2)c1Cl)C(F)(F)F [Compound 12, 3-Chloro-N-(2-chloropyridin-4-yl)-1-methyl-4-{[(1R)-2,2,2-trifluoro-1-methylethyl]sulfamoyl}-1H-pyrrole-2-carboxamide]
- EC50 [1]: 10 nM
- EC50 [2]: 20 nM
- CC50 at 4 days [3]: > 25000 nM
- CC50 at 4 days [4]: > 25000 nM
- melting point: 214.8 °C

SMILES: C[C@@H](NS(=O)(=O)c1cn(C)c(C(=O)Nc2cccnc2)c1Cl)C(F)(F)F [Compound 17, 3-chloro-1-methyl-N-(3-pyridyl)-4-[[(1R)-2,2,2-trifluoro-1-methyl-ethyl]sulfamoyl]pyrrole-2-carboxamide]
- EC50 [1]: 750 nM
- EC50 [2]: 530 nM
- CC50 at 4 days [3]: > 25000 nM
- melting point: 196.6 °C

SMILES: C[C@@H](NS(=O)(=O)c1cn(C)c(C(=O)Nc2ccncc2)c1Cl)C(F)(F)F [Compound 16, 3-chloro-1-methyl-N-(4-pyridyl)-4-[[(1R)-2,2,2-trifluoro-1-methyl-ethyl]sulfamoyl]pyrrole-2-carboxamide]
- EC50 [1]: 400 nM
- EC50 [2]: 280 nM
- CC50 at 4 days [3]: > 25000 nM
- melting point: 259.3 °C

SMILES: C[C@@H](NS(=O)(=O)c1cn(C)c(C(=O)Nc2ccnc(Cl)c2)c1F)C(F)(F)F [Compound 20, N-(2-chloro-4-pyridyl)-3-fluoro-1-methyl-[[(1R)-2,2,2-trifluoro-1-methyl-ethyl]sulfamoyl]pyrrole-2-carboxamide]
- EC50 [1]: 30 nM
- EC50 [2]: 20 nM
- CC50 at 4 days [3]: > 25000 nM
- CC50 at 4 days [4]: > 25000 nM

SMILES: C[C@@H](NS(=O)(=O)c1cn(C)c(C(=O)Nc2ccnc(C#N)c2)c1F)C(F)(F)F [Compound 18, N-(2-Cyanopyridin-4-yl)-3-fluoro-1-methyl-4-{[(1R)-2,2,2-trifluoro-1-methylethyl]sulfamoyl}-1H-pyrrole-2-carboxamide]
- EC50 [1]: 30 nM
- EC50 [2]: 30 nM
- CC50 at 4 days [3]: > 25000 nM
- CC50 at 4 days [4]: > 25000 nM

SMILES: C[C@@H](NS(=O)(=O)c1cn(C)c(C(=O)Nc2cc(F)nc(F)c2)c1F)C(C)(F)F [Compound 159, 4-[[(1R)-2,2-difluoro-1-methyl-propyl]sulfamoyl]-N-(2,6-difluoro-4-pyridyl)-3-fluoro-1-methyl-pyrrole-2-carboxamide]
- EC50 [1]: < 100 nM
- EC50 [2]: 9 nM
- CC50 at 4 days [3]: > 25000 nM
- CC50 at 4 days [4]: > 25000 nM

SMILES: Cn1cc(S(=O)(=O)NC2(C(F)(F)F)CCC2)c(Cl)c1C(=O)Nc1ccnc(C#N)c1 [Compound 40, 3-chloro-N-(2-cyano-4-pyridyl)-1-methyl-4-[[1-(trifluoromethyl)cyclobutyl]sulfamoyl]pyrrole-2-carboxamide]
- EC50 [1]: 20 nM
- EC50 [2]: 20 nM
- CC50 at 4 days [3]: > 25000 nM
- CC50 at 4 days [4]: > 25000 nM

SMILES: Cn1cc(S(=O)(=O)NC2(C(F)(F)F)CCC2)c(Cl)c1C(=O)Nc1ccnc(Cl)c1 [Compound 46, 3-chloro-N-(2-chloro-4-pyridyl)-1-methyl-4-[[1-(trifluoromethyl)cyclobutyl]-sulfamoyl]pyrrole-2-carboxamide]
- EC50 [1]: 10 nM
- EC50 [2]: 20 nM
- CC50 at 4 days [3]: > 25000 nM
- CC50 at 4 days [4]: > 25000 nM

SMILES: Cn1cc(S(=O)(=O)NC2(C)CC(F)(F)C2)c(F)c1C(=O)Nc1ccnc(Cl)c1F [Compound 81, N-(2-chloro-3-fluoro-4-pyridyl)-4-[(3,3-difluoro-1-methyl-cyclobutyl)sulfamoyl]-3-fluoro-1-methyl-pyrrole-2-carboxamide]
- EC50 [1]: 10 nM
- EC50 [2]: 8 nM
- CC50 at 4 days [3]: 24300 nM
- CC50 at 4 days [4]: > 25000 nM

SMILES: C[C@@H](NS(=O)(=O)c1cn(C)c(C(=O)Nc2ccnc(C#N)c2)c1Cl)C(F)(F)F [Compound 9, 3-Chloro-N-(2-cyanopyridin-4-yl)-1-methyl-4-{[(1R)-2,2,2-trifluoro-1-methylethyl]sulfamoyl}-1H-pyrrole-2-carboxamide]
- EC50 [1]: 20 nM
- EC50 [2]: 40 nM
- CC50 at 4 days [3]: > 25000 nM
- CC50 at 4 days [4]: > 25000 nM
- melting point: 190.8 °C

SMILES: C[C@@H](NS(=O)(=O)c1cn(C)c(C(=O)Nc2ccnc(Cl)c2)c1F)C(C)(F)F [Compound 61, N-(2-chloro-4-pyridyl)-4-[[(1R)-2,2-difluoro-1-methyl-propyl]sulfamoyl]-3-fluoro-1-methyl-pyrrole-2-carboxamide]
- EC50 [1]: 10 nM
- EC50 [2]: 20 nM
- CC50 at 4 days [3]: > 25000 nM
- CC50 at 4 days [4]: > 25000 nM

SMILES: C[C@@H](NS(=O)(=O)c1cn(C)c(C(=O)Nc2cc(F)nc(F)c2)c1Cl)C(C)(F)F [Compound 104, 3-chloro-4-[[(1R)-2,2-difluoro-1-methyl-propyl]sulfamoyl]-N-(2,6-difluoro-4-pyridyl)-1-methyl-pyrrole-2-carboxamide]
- EC50 [1]: < 100 nM
- EC50 [2]: 10 nM
- CC50 at 4 days [3]: > 25000 nM
- CC50 at 4 days [4]: > 25000 nM

SMILES: C[C@@H](NS(=O)(=O)c1cn(C)c(C(=O)Nc2ccnc(F)c2)c1Cl)C(F)(F)F [Compound 11, 3-Chloro-N-(2-fluoropyridin-4-yl)-1-methyl-4-{[(1R)-2,2,2-trifluoro-1-methylethyl]sulfamoyl}-1H-pyrrole-2-carboxamide]
- EC50 [1]: 20 nM
- EC50 [2]: 60 nM
- CC50 at 4 days [3]: > 25000 nM
- melting point: 218.1 °C
